Where two headings read alike, the source gives them in different places.
Columns and labels:
H460 = assay: RT-CES cell proliferation inhibition, H460; type: cell-based; details: Homo sapiens, NCI-H460
Text: (§1) The biological activity of compounds disclosed herein was monitored and profiled using the Real-Time Cell Electronic Sensing (RT-CES®) system from ACEA Biosciences, Inc. The RT-CES system utilizes cell-substrate impedance technology to monitor cellular behavior inside tissue culture wells in a microtiter plate format. The technology features in the integration of molecular and cell biology with microelectronics and is based on the electronic detection of biological assay process. The details of this cell electronic sensing technology and associated devices, systems and methods of use as described in U.S. provisional application No. 60/379,749, filed on Jul. […]
(§2) For measurement of cell-substrate or cell-electrode impedance using RT-CES technology, microelectrodes having appropriate geometries are fabricated onto the bottom surfaces of microtiter plate or similar device, facing into the wells. […] When there are changes to the biological status of the cells analogue electronic readout signals are measured automatically and in real time, and are converted to digital signals for processing and for analysis. In a RT-CES system, a cell index (arbitrary representation of change in impedance) is automatically derived and provided based on measured electrode impedance values. […]
(§3) To quantify cell status based on the measured cell-electrode impedance, a parameter termed Cell Index is derived. […]

MCF7 = assay: RT-CES cell proliferation inhibition, MCF7; type: cell-based; details: Homo sapiens
Text: as §1, §2, §3

SH-SY5Y = assay: RT-CES cell proliferation inhibition, SH-SY5Y; type: cell-based; details: Homo sapiens
Text: as §1, §2, §3

HepG2 = assay: RT-CES cell proliferation inhibition, HepG2; type: cell-based; details: Homo sapiens
Text: as §1, §2, §3

KB = assay: RT-CES cell proliferation inhibition, KB; type: cell-based; details: Homo sapiens
Text: as §1, §2, §3

Hela = assay: RT-CES cell proliferation inhibition, Hela; type: cell-based; details: Homo sapiens
Text: as §1, §2, §3

MDCK = assay: RT-CES cell proliferation inhibition, MDCK; type: cell-based, Monkey; details: Canis lupus familiaris
Text: as §1, §2, §3

HT29 = assay: RT-CES cell proliferation inhibition, HT29; type: cell-based; details: Homo sapiens, HT-29
Text: as §1, §2, §3

3T3 = assay: RT-CES cell proliferation inhibition, 3T3; type: cell-based; details: Mus musculus, NIH3T3
Text: as §1, §2, §3

MCF7adr = assay: RT-CES cell proliferation inhibition, MCF7adr; type: cell-based; details: Homo sapiens, NCI/ADR-RES
Text: as §1, §2, §3

- IC50 (H460; H460, 24 hrs after compound treatment, read-out: IC50 (24 hr)): 12.3 nM
- IC50 (H460; H460, 48 hrs after compound treatment, read-out: IC50 (48 hr)): 16 nM
- IC50 (MCF7; MCF7, 24 hrs, read-out: IC50 (24 hr)): > 200 nM
- IC50 (MCF7; MCF7, 48 hrs, read-out: IC50 (48 hr)): > 200 nM
- IC50 (SH-SY5Y; 24 hrs, read-out: IC50 (24 hr)): 13.4 nM
- IC50 (SH-SY5Y; 48 hrs, read-out: IC50 (48 hr)): 6.7 nM
- IC50 (HepG2; HepG2, 24 hrs, read-out: IC50 (24 hr)): > 200 nM
- IC50 (HepG2; HepG2, 48 hrs, read-out: IC50 (48 hr)): > 200 nM
- IC50 (KB; 24 hrs, read-out: IC50 (24 hr)): 22.2 nM
- IC50 (KB; 48 hrs, read-out: IC50 (48 hr)): 18.1 nM
- IC50 (Hela; 24 hrs, read-out: IC50 (24 hr)): 5.85 nM
- IC50 (Hela; 48 hrs, read-out: IC50 (48 hr)): 6.95 nM
- IC50 (HT29; HT29, 24 hrs, read-out: IC50 (24 hr)): 53.6 nM
- IC50 (HT29; HT29, 48 hrs, read-out: IC50 (48 hr)): 58.8 nM
- IC50 (MCF7adr; 24 hrs, read-out: IC50 (24 hr)): 12.3 nM
- IC50 (MCF7adr; 48 hrs, read-out: IC50 (48 hr)): 12.5 nM
SMILES: Br.CCOc1ccc(Nc2nc(-c3c(C)nc4sccn34)cs2)cc1 [Compound 27, 2-(4-ethoxyphenyl)amino-4-(6-methylimidazo[2,1-b]thiazol-5-yl)thiazole]
- IC50 (MDCK; 24 hrs, read-out: IC50 (24 hr)): 930 nM
- IC50 (MDCK; 48 hrs, read-out: IC50 (48 hr)): 1870 nM
- IC50 (3T3; 3T3, 24 hrs, read-out: IC50 (24 hr)): 20.6 nM
- IC50 (3T3; 3T3, 48 hrs, read-out: IC50 (48 hr)): 51.5 nM

Reference: patent US8252822B2, “Heterocyclic compounds and uses as anticancer agents” (Acea Biosciences, Inc., priority 2007, dated 2012)
